Here are results for 17 compounds from US7678787B2, “Pyrrolobenzodiazepine pyridine carboxamides and derivatives as follicle-stimulating hormone receptor antagonists” (Wyeth, priority 2005, dated 2010).

One data set deals with T1, human FSH receptor (Homo sapiens, UniProt P23945).
T1 construct: host or cells: CHO-K1 (CHO FSH-R 6CRE-Luc, 1D7 cells)
T1 sequence (P23945 18-695): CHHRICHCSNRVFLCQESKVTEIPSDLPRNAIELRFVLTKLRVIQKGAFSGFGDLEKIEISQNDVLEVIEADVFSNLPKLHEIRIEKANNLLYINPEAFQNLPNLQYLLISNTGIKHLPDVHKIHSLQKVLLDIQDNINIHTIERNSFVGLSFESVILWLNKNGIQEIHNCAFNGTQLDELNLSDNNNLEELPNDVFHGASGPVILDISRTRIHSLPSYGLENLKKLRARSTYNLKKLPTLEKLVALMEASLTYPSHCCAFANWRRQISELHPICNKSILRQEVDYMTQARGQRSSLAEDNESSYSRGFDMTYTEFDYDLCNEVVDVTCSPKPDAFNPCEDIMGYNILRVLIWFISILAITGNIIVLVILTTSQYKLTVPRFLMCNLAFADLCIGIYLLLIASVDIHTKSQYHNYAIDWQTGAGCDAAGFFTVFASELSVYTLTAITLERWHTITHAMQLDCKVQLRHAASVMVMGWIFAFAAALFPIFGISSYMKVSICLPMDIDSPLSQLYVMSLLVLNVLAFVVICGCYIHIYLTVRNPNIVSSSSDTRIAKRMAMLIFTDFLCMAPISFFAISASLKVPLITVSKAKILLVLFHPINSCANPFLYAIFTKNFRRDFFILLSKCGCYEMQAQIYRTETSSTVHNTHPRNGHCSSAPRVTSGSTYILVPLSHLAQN
The data set can be described thus: FSH receptor-dependent CRE-luciferase reporter gene assay (CHO FSH-R 6CRE-Luc cells). The class given is cell-based. Particulars: dose-response format in presence of EC50 of purified human FSH; * n=3, ** n=2 averages. The procedure, abridged: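 CHO-K1 cells stably expressing the recombinant human FSH receptor and a luciferase reporter controlled by 6 cAMP response elements were seeded at 50,000 cells/100 μl/well in 96-well white opaque plates. Antagonists were tested in dose-response against the EC50 of purified human FSH for 4 hours at 37° C, and luciferase chemiluminescence was read with a LucScreen kit.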
(In general: A reporter such as luciferase makes a cellular process visible.)

Another data set deals with T2, hFSH-R (Homo sapiens, UniProt P23945).
T2 construct: expressed in transfected cells; host or cells: CHO-3D2 cells (CHO-K1 parental line)
T2 sequence (P23945 18-695): T1 sequence (P23945 18-695)
The data set can be described thus: cAMP accumulation (RIA) in CHO-3D2 cells (hFSH-R), hFSH-induced. The class given is cell-based. Particulars: inhibition of cAMP accumulation induced by hFSH at EC20, CHO-3D2 cells. As for the experimental part:
IN VITRO BIO-ASSAY OF AGONISTS AND ANTAGONISTS TO THE FSH RECEPTOR. SELECTIVITY AND DEPENDENCY OF AGONISTS AND ANTAGONISTS TO THE FSH RECEPTOR
Compound Vehicle: Stock compounds were solubilized in 100% DMSO (Sigma-Aldrich Chemical Co., St. Louis, Mo.) at a concentration of 30 mM. The compounds subsequently were diluted in sterile assay medium consisting of Opti-MEM® I (Invitrogen/Life Technologies, Carlsbad, Calif.) with 0.1% (w/v) BSA (Sigma-Aldrich) prior to use in the bio-assay. The final concentration of DMSO in the assay was 0.1%.
Plated cells are then incubated at 37° C. in a humidified 5% CO2/95% air atmosphere.
Assay: On the day of the assay, cells were washed three times with 100 μl/well of assay medium consisting of Opti-MEM® I (Invitrogen/Life Technologies) with 0.1% (w/v) BSA (Sigma-Aldrich). Medium was removed and 100 μl of assay medium was added to each well. Plates were incubated for an additional 30 minutes at 37° C. […] Reactions were terminated by the addition of 50 μl of 0.2N hydrochloric acid to each well and cAMP-accumulation was measured by radioimmunoassay (RIA) using a commercially available kit (Amersham Biosciences, Piscataway, N.J.).
All test compounds were evaluated in a dose-response paradigm ranging from 0.01 to 30 μM. Controls and test compounds were evaluated in quadruplicate in a 96-well format.
Along with the test compounds, FSH was run also as a postive control in the agonist mode using concentrations ranging from 0.1-1000 ng/ml.
Data were analyzed by one-way analysis of variance and significant differences between treatments and control determined by Least Significant Difference test.
Test compounds were compared to the effect of purified human FSH.
On the technique in general: cAMP levels reflect the balance of adenylyl cyclase and phosphodiesterase activity.

The term IC50 denotes the point on the concentration scale where inhibition reaches its midpoint. For orientation: melting point means the temperature, or range, at which the solid turns liquid. Compound `Cc1ccccc1-c1ccc(C(=O)N2Cc3ccc(C(=O)NCc4cccnc4)n3Cc3ccccc32)cc1C` [Example 3] yielded a melting point of 148 to 150 °C. In addition, the concentration for half-maximal inhibition (IC50) on human FSH receptor stood at 920 nM. Moreover, the IC50 on hFSH-R came to 80 nM.
`Cc1cccnc1-c1ccc(C(=O)N2Cc3ccc(C(=O)NCc4cccnc4)n3Cc3ccccc32)cc1` [Example 109] registered a melting point of 150 to 151 °C. Further, the half-maximal inhibitory concentration (IC50) at human FSH receptor is 2920 nM. This compound came in with an IC50 on hFSH-R of 300 nM.
On to `O=C(c1ccccc1)c1ccc(C(=O)N2Cc3ccc(C(=O)NCc4cccnc4)n3Cc3ccccc32)cc1` [Example 75], for which the melting point was 211 to 213 °C (dec.). The half-inhibitory concentration (IC50) on human FSH receptor is > 30000 nM. This compound registered an IC50 against hFSH-R of 21000 nM.
The compound `O=C(NCc1cccnc1)c1ccc2n1Cc1ccccc1N(C(=O)c1ccc(-c3ccccc3CN3CCCCC3)cc1)C2` [Example 44] came in with a melting point of 199 to 202 °C. Further, the IC50 at human FSH receptor was 2940 nM. The half-inhibitory concentration (IC50) against hFSH-R was 1710 nM.
In the same order, the values of `CN(C)Cc1ccccc1-c1ccc(C(=O)N2Cc3ccc(C(=O)NCc4cccnc4)n3Cc3ccccc32)cc1` [Example 45] are 95 to 104 °C, 3580 nM and 780 nM.
For `Cc1cc(C(=O)N2Cc3ccc(C(=O)NCc4cccnc4)n3Cc3ccccc32)ccc1-c1ccccc1` [Example 57], the melting point lay in the range of 108 to 112 °C. Besides, the IC50 at human FSH receptor is 2120 nM. In addition, half-maximal inhibition against hFSH-R (IC50) was put at 700 nM.
`NCc1ccccc1-c1ccc(C(=O)N2Cc3ccc(C(=O)NCc4cccnc4)n3Cc3ccccc32)cc1` [Example 46]: the melting point is 115 to 120 °C. Further, the 50% inhibitory concentration (IC50) at human FSH receptor worked out at 2190 nM. On hFSH-R, this compound registered a 50% inhibitory concentration (IC50) of 370 nM.
`O=Cc1ccccc1-c1ccc(C(=O)N2Cc3ccc(C(=O)NCc4cccnc4)n3Cc3ccccc32)cc1` [Example 56] returned a melting point of 162 to 163 °C. Moreover, the half-maximal inhibitory concentration (IC50) on human FSH receptor came out at 1040 nM. Half-maximal inhibition on hFSH-R (IC50) was put at 900 nM.
For the compound `O=C(NCc1cccnc1)c1ccc2n1Cc1ccccc1N(C(=O)c1ccc(-n3cccn3)cc1)C2` [Example 112], the melting point amounted to 107 °C. Moreover, the half-inhibitory concentration (IC50) at human FSH receptor was determined as 7990 nM. In addition, the half-inhibitory concentration (IC50) against hFSH-R is 1300 nM.
`COc1cccc(-c2ccc(C(=O)N3Cc4ccc(C(=O)NCc5cccnc5)n4Cc4ccccc43)cc2C)c1` [Example 70] gave a melting point of 176 to 177 °C. Besides, the IC50 at human FSH receptor was determined as 5600 nM. The compound also yielded a concentration for half-maximal inhibition (IC50) against hFSH-R of 2400 nM.
With `CCOc1ccccc1-c1ccc(C(=O)N2Cc3ccc(C(=O)NCc4cccnc4)n3Cc3ccccc32)cc1` [Example 33], the 50% inhibitory concentration (IC50) on human FSH receptor stood at 1450 nM; against hFSH-R, 900 nM.
For `O=C(NCc1cccnc1)c1ccc2n1Cc1ccccc1N(C(=O)c1ccc(NCc3ccccc3)nc1)C2` [Example 119], in that order: 10500 nM and 6700 nM.
`CC(O)c1ccccc1-c1ccc(C(=O)N2Cc3ccc(C(=O)NCc4cccnc4)n3Cc3ccccc32)cc1` (single isomer, unassigned; (-)) [Example 53]: the IC50 came to 159 nM on human FSH receptor and 120 nM at hFSH-R.
For `CNC(=O)Cc1ccccc1-c1ccc(C(=O)N2Cc3ccc(C(=O)NCc4cccnc4)n3Cc3ccccc32)cc1` [Example 39], the half-inhibitory concentration (IC50) on human FSH receptor is 414 nM; against hFSH-R, 250 nM.
With `Cc1cc(C(=O)N2Cc3ccc(C(=O)NCc4cccnc4)n3Cc3ccccc32)ccc1-c1ccccc1C(F)(F)F` [Example 5], the IC50 on human FSH receptor is 13800 nM; at hFSH-R it was 1500 nM.
Turning to `Cc1cc(C(=O)N2Cc3ccc(C(=O)NCc4cccnc4)n3Cc3ccccc32)ccc1-c1cccs1` [Example 104], the results for the 50% inhibitory concentration (IC50) on human FSH receptor and at hFSH-R were 3000 nM and 400 nM, respectively.
As to `Cc1cc(C(=O)N2Cc3ccc(C(=O)NCc4cccnc4)n3Cc3ccccc32)ccc1-c1ccc(Cl)cc1` [Example 24], the half-inhibitory concentration (IC50) was 10700 nM on human FSH receptor and 1600 nM against hFSH-R.
